Test systems include TK-10 renal; NCI-H226 lung; NCI-H522 lung; HCC-2998 colon; CCRF-CEM leukemia; SNB-75 CNS; SK-MEL-5 melanoma; UACC-62 melanoma; OVCAR-8 ovarian; SW-620 colon.
Test in all cases: NCI anticancer screen, dose series, 48 h

Several values for one entry are separate records, joined by “and”; a condition that tells them apart may be missing. Equal entries are not always repeated.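 Grown in 96-well plates, cells were treated for 48 hours with each compound at five concentrations. Insufficient inhibition: endpoint recorded as highest concentration tested. GI50 marks 50% less growth. At the TGI there is no net growth.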 Where only a bound is given, the exact number is not on record here.

On to `CC(=O)c1cc2c3c(c1)c1cc4c(cc1c(=O)n3CC2)OCO4`, for which the TGI is above 100000 nM with TK-10 renal; above 100000 nM in the experiment on NCI-H226 lung; 34000 nM with NCI-H522 lung; above 100000 nM with HCC-2998 colon; above 100000 nM with CCRF-CEM leukemia; above 100000 nM in the experiment on SNB-75 CNS. Besides, the TGI with SK-MEL-5 melanoma is above 100000 nM; in the experiment with UACC-62 melanoma, 53900 nM; with OVCAR-8 ovarian it was above 100000 nM; with SW-620 colon, above 100000 nM.
For the compound `COc1ccc(Nc2nc(NCc3ccccc3)c3ccccc3n2)cc1`, the GI50 with TK-10 renal was 8450 nM; with NCI-H226 lung, 11500 nM; in the experiment with NCI-H522 lung, 3660 nM; in the experiment on HCC-2998 colon it was 2900 nM; with CCRF-CEM leukemia it was 2760 nM; with SNB-75 CNS, 7980 nM. The GI50 in the experiment on SK-MEL-5 melanoma was 1680 nM; in the experiment on UACC-62 melanoma, 10100 nM; in the experiment on OVCAR-8 ovarian, 2170 nM; in the experiment with SW-620 colon, 2820 nM. The TGI in the experiment with TK-10 renal is 22000 nM; with NCI-H226 lung, 37100 nM; in the experiment on NCI-H522 lung, 16100 nM; in the experiment on HCC-2998 colon, 7600 nM; in the experiment on CCRF-CEM leukemia, 9190 nM; with SNB-75 CNS, 22400 nM. For the same compound, the TGI with SK-MEL-5 melanoma was 3140 nM; in the experiment on UACC-62 melanoma, 23300 nM; in the experiment with OVCAR-8 ovarian it was 5150 nM; with SW-620 colon it was 10400 nM.
On to `C=C1C(=O)O[C@H]2[C@H]1CC/C(COC(=O)NCc1c[nH]c3ccc(OC)cc13)=C\CC[C@@]1(C)O[C@@H]21`, for which the GI50 with TK-10 renal is 1950 nM; with NCI-H226 lung, 14900 nM; with NCI-H522 lung it was 890 nM; in the experiment with HCC-2998 colon it was 5770 nM; in the experiment on CCRF-CEM leukemia, 152 nM; in the experiment on SNB-75 CNS, 11000 nM. Moreover, the GI50 in the experiment on SK-MEL-5 melanoma is 1380 nM; in the experiment with UACC-62 melanoma it was 1700 nM; in the experiment on OVCAR-8 ovarian, 1610 nM; with SW-620 colon, 450 nM. Further, the TGI is 3840 nM with TK-10 renal; 35500 nM in the experiment with NCI-H226 lung; 2380 nM with NCI-H522 lung; 19000 nM in the experiment on HCC-2998 colon; 1070 nM in the experiment with CCRF-CEM leukemia; 23500 nM in the experiment with SNB-75 CNS. Further, the TGI in the experiment on SK-MEL-5 melanoma is 2690 nM; in the experiment on UACC-62 melanoma, 3690 nM; with OVCAR-8 ovarian, 5530 nM; in the experiment on SW-620 colon it was 1920 nM.
Regarding `CCNC(=O)Nc1ccc(-c2nc3c(c(N4CCOC[C@@H]4C)n2)CCN(C2COC2)C3)cc1`, the GI50 in the experiment on TK-10 renal was 195 nM and 128 nM; with NCI-H226 lung it was 247 nM and 119 nM; with NCI-H522 lung, 181 nM and 159 nM; with HCC-2998 colon, 748 nM and 398 nM; with CCRF-CEM leukemia it was 525 nM and 393 nM; with SNB-75 CNS, 104 nM and 73.7 nM. For the same compound, the GI50 was 317 nM and 331 nM in the experiment with SK-MEL-5 melanoma; 194 nM and 72.7 nM in the experiment with UACC-62 melanoma; 460 nM and 534 nM in the experiment with OVCAR-8 ovarian; 793 nM and 610 nM with SW-620 colon. In addition, the TGI is 3860 nM and 3130 nM in the experiment on TK-10 renal; > 24200 nM and 6180 nM in the experiment with NCI-H522 lung; above 100000 nM in the experiment with HCC-2998 colon; above 100000 nM in the experiment with CCRF-CEM leukemia; 1130 nM and 1100 nM with SNB-75 CNS; 8520 nM and 2560 nM with SK-MEL-5 melanoma. Also, the TGI with UACC-62 melanoma is 1280 nM and 994 nM; in the experiment with OVCAR-8 ovarian, above 100000 nM; with SW-620 colon, above 100000 nM.
Take `Cc1ccccc1NC(=O)N/C(N)=N/c1nc2ccccc2s1`: the GI50 in the experiment with TK-10 renal is 3780 nM; in the experiment on NCI-H226 lung it was 589 nM; in the experiment with NCI-H522 lung, 42.7 nM; in the experiment with HCC-2998 colon, 145 nM; with CCRF-CEM leukemia it was 40.2 nM; with SNB-75 CNS, below 16.5 nM. For the same compound, the GI50 in the experiment with SK-MEL-5 melanoma was 65 nM; in the experiment on UACC-62 melanoma, 42.5 nM; in the experiment with OVCAR-8 ovarian, 97.9 nM; in the experiment on SW-620 colon, 42.7 nM. The TGI in the experiment with TK-10 renal is above 100000 nM; in the experiment on NCI-H226 lung, above 100000 nM; in the experiment on NCI-H522 lung, above 100000 nM; in the experiment with HCC-2998 colon, above 100000 nM; in the experiment with CCRF-CEM leukemia it was above 100000 nM; in the experiment with SNB-75 CNS it was 446 nM. Also, the TGI in the experiment with SK-MEL-5 melanoma is 2070 nM; in the experiment with UACC-62 melanoma, above 100000 nM; in the experiment with OVCAR-8 ovarian, above 43200 nM; in the experiment on SW-620 colon, above 100000 nM.

Source of the values: PubChem BioAssay (NCI).
